Source: patent US20220324835A1 (Nurix Therapeutics, Inc., priority 2018, published 2022)

Experiments:
Cbl-b [1] = target: T1, Cbl-b (Homo sapiens, UniProt Q13191); test: Cbl-b inhibition assay (Cbl-b activity assay, FRET, Biological Example 1; 100 mM NaCl, 60 nM Src kinase); type: biochemical; conditions: upper bound stated in text lists; read-out: IC50 values in the Cbl-b inhibition assay of Biological Example 1
In short: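 Binding-based Cbl-b activity assay. Src-phosphorylated, N-terminally biotin-Avi-tagged Cbl-b recruits labelled UbcH5B-Ub, and proximity to streptavidin-terbium yields FRET.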

Cbl-b [2] = target: T1, Cbl-b; test: Cbl-b activity assay (Cbl-b inhibition assay), TR-FRET of Cbl-b interaction with UbcH5B-Ub; type: biochemical; conditions: assay buffer with 100 mM NaCl, 60 nM Src kinase; read-out: Cbl-b activity IC50
In short: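 Compound-treated Cbl-b was incubated 1.5 h with Src kinase (60 nM final; 30 nM for asterisked values, which also used 50 mM instead of 100 mM NaCl), 1 mM ATP and 5 mM MgCl2. Binding to fluorescent Ub-loaded UbcH5B (C85K mutant) was then read by TR-FRET after 1 h more.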

T1 sequence (Q13191 36-427): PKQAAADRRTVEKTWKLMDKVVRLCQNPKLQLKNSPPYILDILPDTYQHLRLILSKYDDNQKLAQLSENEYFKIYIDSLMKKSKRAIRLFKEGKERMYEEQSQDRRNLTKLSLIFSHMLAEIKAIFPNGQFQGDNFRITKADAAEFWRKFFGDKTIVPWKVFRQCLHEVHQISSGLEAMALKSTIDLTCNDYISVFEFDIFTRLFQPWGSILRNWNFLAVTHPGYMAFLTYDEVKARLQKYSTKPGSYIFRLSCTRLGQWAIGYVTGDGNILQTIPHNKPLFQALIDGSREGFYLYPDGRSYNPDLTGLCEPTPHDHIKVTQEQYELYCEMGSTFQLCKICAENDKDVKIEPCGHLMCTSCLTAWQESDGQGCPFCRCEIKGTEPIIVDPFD

| Structure (SMILES) | IC50 (Cbl-b [1]) [nM] | IC50 (Cbl-b [2]) [nM] |
| --- | --- | --- |
| Cn1cnnc1CC1(c2cccc(N3Cc4c(cc(CN5CC6CC(C5)C6(F)F)cc4C(F)(F)F)C3=O)c2)COC1 [Example 640, 6-((6,6-difluoro-3-azabicyclo[3.1.1]heptan-3-yl)methyl)-2-(3-(3-((4-methyl-4H-1,2,4-triazol-3-yl)methyl)oxetan-3-yl)phenyl)-4-(trifluoromethyl)isoindolin-1-one] | ≤ 100 | < 100 |
| Cn1cnnc1CC1(c2cccc(N3Cc4c(cc(CN5CCc6cccnc6C5)cc4C(F)(F)F)C3=O)c2)COC1 [Example 645, 6-((5,8-dihydro-1,7-naphthyridin-7(6H)-yl)methyl)-2-(3-(3-((4-methyl-4H-1,2,4-triazol-3-yl)methyl)oxetan-3-yl)phenyl)-4-(trifluoromethyl)isoindolin-1-one] | ≤ 100 | < 100 |
| Cn1cnnc1CC1(c2cccc(N3Cc4c(cc(CN5CCC(F)(F)C(O)C5)cc4C(F)(F)F)C3=O)c2)COC1 (stereo not shown) [Example 647, 6-((4,4-difluoro-3-hydroxypiperidin-1-yl)methyl)-2-(3-(3-((4-methyl-4H-1,2,4-triazol-3-yl)methyl)oxetan-3-yl)phenyl)-4-(trifluoromethyl)isoindolin-1-one] | ≤ 100 | < 100 |
| Cn1cnnc1CC1(c2cccc(N3Cc4c(cc(CN5CCc6cnccc6C5)cc4C(F)(F)F)C3=O)c2)COC1 [Example 648, 6-((3,4-dihydro-2,6-naphthyridin-2(1H)-yl)methyl)-2-(3-(3-((4-methyl-4H-1,2,4-triazol-3-yl)methyl)oxetan-3-yl)phenyl)-4-(trifluoromethyl)isoindolin-1-one] | ≤ 100 | < 100 |
| Cn1cnnc1CC1(c2cccc(N3Cc4c(cc(CN5Cc6cccc(Cl)c6C5)cc4C(F)(F)F)C3=O)c2)COC1 [Example 657, 6-((4-chloroisoindolin-2-yl)methyl)-2-(3-(3-((4-methyl-4H-1,2,4-triazol-3-yl)methyl)oxetan-3-yl)phenyl)-4-(trifluoromethyl)isoindolin-1-one] | ≤ 100 | < 100 |
| Cn1cnnc1CC1(c2cccc(N3Cc4c(cc(CN5Cc6cccc(C#N)c6C5)cc4C(F)(F)F)C3=O)c2)COC1 [Example 658, 2-((2-(3-(3-((4-methyl-4H-1,2,4-triazol-3-yl)methyl)oxetan-3-yl)phenyl)-3-oxo-7-(trifluoromethyl)isoindolin-5-yl)methyl)isoindoline-4-carbonitrile] | ≤ 100 | < 100 |
| Cn1cnnc1CC1(c2cccc(N3Cc4c(cc(CN5Cc6ccc(Cl)cc6C5)cc4C(F)(F)F)C3=O)c2)COC1 [Example 659, 6-((5-chloroisoindolin-2-yl)methyl)-2-(3-(3-((4-methyl-4H-1,2,4-triazol-3-yl)methyl)oxetan-3-yl)phenyl)-4-(trifluoromethyl)isoindolin-1-one] | ≤ 100 | < 100 |
| COc1ccc2c(c1)CN(Cc1cc3c(c(C(F)(F)F)c1)CN(c1cccc(C4(Cc5nncn5C)COC4)c1)C3=O)CC2 [Example 661, 6-((7-methoxy-3,4-dihydroisoquinolin-2(1H)-yl)methyl)-2-(3-(3-((4-methyl-4H-1,2,4-triazol-3-yl)methyl)oxetan-3-yl)phenyl)-4-(trifluoromethyl)isoindolin-1-one] | ≤ 100 | < 100 |
| Cn1cnnc1CC1(c2cccc(N3Cc4c(cc(CN5CC[C@@H](c6ccccc6)C5)cc4C(F)(F)F)C3=O)c2)COC1 [Example 662b, (S)-2-(3-(3-((4-methyl-4H-1,2,4-triazol-3-yl)methyl)oxetan-3-yl)phenyl)-6-((3-phenylpyrrolidin-1-yl)methyl)-4-(trifluoromethyl)isoindolin-1-one] | ≤ 100 | < 100 |
| C[C@@H]1CN(Cc2cc3c(c(C(F)(F)F)c2)CN(c2cccc(C4(Cc5nncn5C)COC4)c2)C3=O)C[C@H](C)O1 [Example 664, 6-(((cis)-2,6-dimethylmorpholino)methyl)-2-(3-(3-((4-methyl-4H-1,2,4-triazol-3-yl)methyl)oxetan-3-yl)phenyl)-4-(trifluoromethyl)isoindolin-1-one] | ≤ 100 | < 100 |
| Cn1cnnc1CC1(c2cccc(N3Cc4c(cc(CN5CCOC(C)(C)C5)cc4C(F)(F)F)C3=O)c2)COC1 [Example 665, 6-((2,2-dimethylmorpholino)methyl)-2-(3-(3-((4-methyl-4H-1,2,4-triazol-3-yl)methyl)oxetan-3-yl)phenyl)-4-(trifluoromethyl)isoindolin-1-one] | ≤ 100 | < 100 |
| Cn1cnnc1CC1(c2cccc(N3Cc4c(cc(CN5CCOC6(CC6)C5)cc4C(F)(F)F)C3=O)c2)COC1 [Example 666, 6-((4-oxa-7-azaspiro[2.5]octan-7-yl)methyl)-2-(3-(3-((4-methyl-4H-1,2,4-triazol-3-yl)methyl)oxetan-3-yl)phenyl)-4-(trifluoromethyl)isoindolin-1-one] | ≤ 100 | < 100 |
| COC[C@@H]1CN(Cc2cc3c(c(C(F)(F)F)c2)CN(c2cccc(C4(Cc5nncn5C)COC4)c2)C3=O)CCO1 [Example 667, (S)-6-((2-(methoxymethyl)morpholino)methyl)-2-(3-(3-((4-methyl-4H-1,2,4-triazol-3-yl)methyl)oxetan-3-yl)phenyl)-4-(trifluoromethyl)isoindolin-1-one] | ≤ 100 | < 100 |
| CC(c1cc2c(c(C(F)(F)F)c1)CN(c1cccc(C3(C(F)(F)c4nncn4C)COC3)c1)C2=O)N1CC[C@H](F)C1 (stereo partly drawn) [Example 678, 2-(3-(3-(difluoro(4-methyl-4H-1,2,4-triazol-3-yl)methyl)oxetan-3-yl)phenyl)-6-(l-((S)-3-fluoropyrrolidin-1-yl)ethyl)-4-(trifluoromethyl)isoindolin-1-one] | ≤ 100 | < 100 |
| C[C@H](Cc1nncn1C)c1cc(C2=CCOCC2)nc(N2Cc3c(cccc3C(F)(F)F)C2=O)c1 [Example 685, (R)-2-(6-(3,6-dihydro-2H-pyran-4-yl)-4-(1-(4-methyl-4H-1,2,4-triazol-3-yl)propan-2-yl)pyridin-2-yl)-4-(trifluoromethyl)isoindolin-1-one] | ≤ 1000 | 301 to 1000 |
| CC(c1nncn1C)C1(c2cccc(N3Cc4c(cc(CN5CCC6(CC6)C5)cc4C(F)(F)F)C3=O)c2)COC1 (stereo not shown) [Example 701, 6-((5-azaspiro[2.4]heptan-5-yl)methyl)-2-(3-(3-(1-(4-methyl-4H-1,2,4-triazol-3-yl)ethyl)oxetan-3-yl)phenyl)-4-(trifluoromethyl)isoindolin-1-one] | ≤ 1000 | 301 to 1000 |
| Cc1cc(C(=O)Nc2cccc(C3(Cc4nncn4C(F)F)COC3)c2)nc(C2CC2)n1 [Example 704, 2-cyclopropyl-N-(3-(3-((4-(difluoromethyl)-4H-1,2,4-triazol-3-yl)methyl)-oxetan-3-yl)phenyl)-6-methylpyrimidine-4-carboxamide] | ≤ 100 | < 100 |
| Cn1cnnc1CC1(c2cccc(N3Cc4c(cc(CN5CCc6cc(C#N)ccc6C5)cc4C(F)(F)F)C3=O)c2)COC1 [Example 706, 2-((2-(3-(3-((4-methyl-4H-1,2,4-triazol-3-yl)methyl)oxetan-3-yl)phenyl)-3-oxo-7-(trifluoromethyl)isoindolin-5-yl)methyl)-1,2,3,4-tetrahydroisoquinoline-6-carbonitrile] | ≤ 100 | < 100 |
| Cn1cnnc1CC1(c2cccc(N3Cc4c(cc(CN5CCO[C@H](C(F)(F)F)C5)cc4C(F)(F)F)C3=O)c2)COC1 [Example 707, (S)-2-(3-(3-((4-methyl-4H-1,2,4-triazol-3-yl)methyl)oxetan-3-yl)phenyl)-4-(trifluoromethyl)-6-((2-(trifluoromethyl)morpholino)methyl)isoindolin-1-one] | ≤ 100 | < 100 |
| Cn1cnnc1CC1(c2cccc(N3Cc4c(cc(CN5CCc6ncccc6C5)cc4C(F)(F)F)C3=O)c2)COC1 [Example 709, 6-((7,8-dihydro-1,6-naphthyridin-6(5H)-yl)methyl)-2-(3-(3-((4-methyl-4H-1,2,4-triazol-3-yl)methyl)oxetan-3-yl)phenyl)-4-(trifluoromethyl)isoindolin-1-one] | ≤ 100 | < 100 |
| Cn1cnnc1CC1(c2cccc(N3Cc4c(cc(CN5CCO[C@H](CO)C5)cc4C(F)(F)F)C3=O)c2)COC1 [Example 710, (S)-6-((2-(hydroxymethyl)morpholino)methyl)-2-(3-(3-((4-methyl-4H-1,2,4-triazol-3-yl)methyl)oxetan-3-yl)phenyl)-4-(trifluoromethyl)isoindolin-1-one] | ≤ 100 | < 100 |
| Cn1cnnc1CC1(c2cccc(N3Cc4c(cc(CN5CCN6C(=O)CCC6C5)cc4C(F)(F)F)C3=O)c2)COC1 (stereo not shown) [Example 711, 2-((2-(3-(3-((4-methyl-4H-1,2,4-triazol-3-yl)methyl)oxetan-3-yl)phenyl)-3-oxo-7-(trifluoromethyl)isoindolin-5-yl)methyl)hexahydropyrrolo[1,2-a]pyrazin-6(2H)-one] | ≤ 100 | < 100 |
| Cn1cnnc1CC1(c2cccc(N3Cc4c(cc(CN5CCOC6(CCOC6)C5)cc4C(F)(F)F)C3=O)c2)COC1 (stereo not shown) [Example 712, 6-((2,6-dioxa-9-azaspiro[4.5]decan-9-yl)methyl)-2-(3-(3-((4-methyl-4H-1,2,4-triazol-3-yl)methyl)oxetan-3-yl)phenyl)-4-(trifluoromethyl)isoindolin-1-one] | ≤ 100 | < 100 |
